In patent US20260294915A1, “COMBINATION THERAPY COMPRISING A MAT2A INHIBITOR AND A TOPOISOMERASE INHIBITOR, A SPLICING INHIBITOR SULFONAMIDE, OR A KIF18 INHIBITOR” (IDEAYA BIOSCIENCES, INC., priority 2023, published 2026):

What was measured:
Format in all cases: cell-based
TCCSUP = assay: 10-day proliferation (CTG), equimolar Compound A + Compound B (Example 1); conditions: Homo sapiens, TCC-SUP, 240 h, 10 days, single agent or 1:1 combo; for IC100: read-out: gIC100, heading: gIC100; for IC30: read-out: gIC30; for IC40: read-out: gIC40; for IC50: read-out: gIC50; for IC60: read-out: gIC60; for IC70: read-out: gIC70; for IC80: read-out: gIC80; for IC90: read-out: gIC90
Protocol: (§1) A 10-day proliferation assay was performed in a panel of 5 MTAP-deficient and 2 wild type non-small cell lung and bladder cancer cell lines. Optimal cell seeding for all cell lines was determined by assessing the growth over a range of seeding densities in a 384-well format to identify conditions that permitted proliferation for 10 days. Cells were then plated at the optimal seeding density and treated with 20-point, two-fold dilution series of Compound A, sovilnesib (“Compound B”), or an equimolar combination of Compound A and Compound B. Concentrations tested for Compound A and Compound B alone or in combination ranged from 0.038 nM to 20,000 nM. A plate of cells was harvested at the time of compound addition to quantify the number of cells at the start of the combination (T0). For cell quantification, the harvested cells were lysed with Promega CellTiter-Glo (CTG) reagent according to the manufacturer's protocol and the chemiluminescent signal was detected on a Synergy Neo plate reader. CTG estimates cell number through detection of cellular ATP levels. Cells were incubated with the drug combinations at 37° C. with 5% CO2 for 10 days. Cells were then lysed with CTG and the chemiluminescent signal was measured.
(§2) CTG values obtained after the 10-day treatment were background subtracted and expressed as a percent of the T0 value. Data were plotted against compound concentration and fit with a four-parameter equation to generate dose response curves for each single agent and the equimolar combination. Growth ICx (gICx) values ranging from gIC30 to gIC100 were interpolated from the fitted curves. Synergistic growth inhibition was assessed by determination of Combination Index (CI) values at these various points across the titration using the mutually non-exclusive equation [Chou, 1983; Chou, 1981] shown below where A equals the gIC value of Compound A, B equals the gICx value of Compound B, and A+B or B+A equals the gICx value of the equimolar combination. A Combination Index value less than 1.0 was considered synergistic.
(§3) Synergy was measured for equimolar combinations of Compound A and Compound B utilizing the mutually non-exclusive Combination Index equation across gICx values ranging from gIC30-gIC100. Combination Index values are shown for: NCI-H520 (4A) and TCCSUP (41B).

NCI-H520 [1] = assay: as above; conditions: Homo sapiens, NCI-H520, 240 h, 10 days, single agent or 1:1 combo; for IC30: read-out: gIC30; for IC40: read-out: gIC40; for IC50: read-out: gIC50; for IC60: read-out: gIC60; for IC70: read-out: gIC70; for IC80: read-out: gIC80; for IC90: read-out: gIC90; for IC100: read-out: gIC100
Protocol: as §1, §2, §3

NCI-H520 [2] = assay: 10-day proliferation (CTG), Compound B titration + 1000 nM Compound A, Bliss (Example 2); set-up: key: GDI on scale −100 to 100; 0 = cell number at T0
Protocol: A 10-day proliferation assay was performed in a panel of 5 MTAP-deficient and 2 wild type non-small cell lung and bladder cancer cell lines. Optimal cell seeding for all cell lines was determined by assessing the growth over a range of seeding densities in a 384-well format to identify conditions that permitted proliferation for 10 days. Cells were then plated at the optimal seeding density and treated with 20-point, two-fold dilution series of Compound B in combination with a 1000 nM fixed concentration of Compound A. Single agent titrations for Compound A and Compound B were included for comparison. Concentrations tested for Compound A and Compound B alone or in combination ranged from 0.038 nM to 20,000 nM. A plate of cells was harvested at the time of compound addition to quantify the number of cells at the start of the combination (T0). For cell quantification, the harvested cells were lysed with Promega CellTiter-Glo (CTG) reagent according to the manufacturer's protocol and the chemiluminescent signal was detected as described in Example 1 above. Cells were incubated with the drug combinations at 37° C. with 5% CO2 for 10 days. Cells were then lysed with CTG and the chemiluminescent signal was measured.
CTG values obtained after the 10-day treatment were background subtracted and expressed as a percent of the T0 value set at 100%. Data were plotted against compound concentration and fit with a four-parameter equation to generate single agent dose response curves. Percent inhibition was determined for each combination and single agent concentration compared to a DMSO control. In addition, the overall net growth or death of the cells was calculated and reported as a growth death index (GDI) value on a scale of −100 to 100 with the midpoint (0) being the number of cells at the beginning of the combination (T0).
Synergistic growth inhibition was assessed using the Bliss Independence model for each point of the Compound B titration in combination with 1000 nM Compound A. The observed growth inhibition at each point was compared to the predicted inhibition based on the additive activity of each single agent. Predicted inhibition was calculated using (Ea+Eb)−(Ea*Eb) where E equals the effect (inhibition) of each single agent (a and b). A difference between the observed inhibition percentage and the predicted inhibition percentage greater than 10% was considered synergistic. A Bliss score was only calculated for combinations eliciting >20% growth inhibition (GDI value <80). Since Bliss is calculated based on growth inhibition, scores within cytotoxic dose ranges may not accurately reflect synergistic cytotoxicity.
Synergy was measured across the Compound B titration with 1000 nM Compound A by Bliss Independence analysis. Bliss scores >10 are indicated by “*” and are considered synergistic. […] Synergy as reported using Bliss may be underrepresented within cytotoxic dose ranges. Growth death index values are shown for the combination titration and each single agent Compound A (Cmpd A) and Compound B (Cmpd B) on a scale of −100 to 100 with the midpoint (0) being the number of cells at the beginning of the combination (T0). Bliss and GDI values are shown for five MTAP-deficient cell lines: NCI-1H520 (6A), TCCSUP (6B).

Row | IC50 (NCI-H520 [1]) [µM] | IC90 (NCI-H520 [1]) [µM] | Compound | IC100 (TCCSUP) [µM] | IC30 (TCCSUP) [µM] | IC40 (TCCSUP) [µM] | IC50 (TCCSUP) [µM] | IC60 (TCCSUP) [µM] | IC70 (TCCSUP) [µM] | IC80 (TCCSUP) [µM] | IC90 (TCCSUP) [µM] | IC30 (NCI-H520 [1]) [µM] | IC40 (NCI-H520 [1]) [µM] | IC60 (NCI-H520 [1]) [µM] | IC70 (NCI-H520 [1]) [µM] | IC80 (NCI-H520 [1]) [µM] | IC100 (NCI-H520 [1]) [µM] | other results
1 | 20 | 20 | Nc1nc(=O)n(-c2ccccc2Cl)c2nc(C(F)(F)F)ccc12 [Compound A] | > 20 | 20 | 20 | 20 | 20 | 20 | 20 | 20 | 20 | 20 | 20 | 20 | 20 | 20 | GDI (NCI-H520 [2]; single agent, 1000 nM Cmpd A): 100
2 | 5.8 | 15.5 | Cc1cc(NC(=O)c2ccc(NS(=O)(=O)CCO)cc2N2CCC3(CC2)CC3)nc(N2CCC(F)(F)CC2)n1 [Compound B, N-(2-(4,4-difluoropiperidin-1-yl)-6-methylpyrimidin-4-yl)-4-((2-hydroxyethyl)sulfonamido)-2-(6-azaspiro[2.5]octan-6-yl)benzamide] | > 20 | 0.091 | 0.107 | 0.126 | 0.15 | 0.183 | 0.24 | 0.405 | 2.81 | 4.16 | 7.73 | 9.98 | 12.5 | 18.7 | GDI (NCI-H520 [2]; Cmpd B 0.04 nM, combo: + 1000 nM Cmpd A): 100; GDI (NCI-H520 [2]; Cmpd B 0.1 nM, combo: + 1000 nM Cmpd A): 100; GDI (NCI-H520 [2]; Cmpd B 0.2 nM, combo: + 1000 nM Cmpd A): 100; GDI (NCI-H520 [2]; Cmpd B 0.3 nM, combo: + 1000 nM Cmpd A): 100; GDI (NCI-H520 [2]; Cmpd B 0.6 nM, combo: + 1000 nM Cmpd A): 100; GDI (NCI-H520 [2]; Cmpd B 1.2 nM, combo: + 1000 nM Cmpd A): 100; GDI (NCI-H520 [2]; Cmpd B 2.4 nM, combo: + 1000 nM Cmpd A): 100; GDI (NCI-H520 [2]; Cmpd B 4.9 nM, combo: + 1000 nM Cmpd A): 100; GDI (NCI-H520 [2]; Cmpd B 9.8 nM, combo: + 1000 nM Cmpd A): 100; GDI (NCI-H520 [2]; Cmpd B 19.5 nM, combo: + 1000 nM Cmpd A): 100; GDI (NCI-H520 [2]; Cmpd B 39.1 nM, combo: + 1000 nM Cmpd A): 100; GDI (NCI-H520 [2]; Cmpd B 78.1 nM, combo: + 1000 nM Cmpd A): 100; GDI (NCI-H520 [2]; Cmpd B 156.3 nM, combo: + 1000 nM Cmpd A): 100; GDI (NCI-H520 [2]; Cmpd B 312.5 nM, combo: + 1000 nM Cmpd A): 85; GDI (NCI-H520 [2]; Cmpd B 625 nM, combo: + 1000 nM Cmpd A): 77; GDI (NCI-H520 [2]; Cmpd B 1250 nM, combo: + 1000 nM Cmpd A): 92; GDI (NCI-H520 [2]; Cmpd B 2500 nM, combo: + 1000 nM Cmpd A): 92; GDI (NCI-H520 [2]; Cmpd B 5000 nM, combo: + 1000 nM Cmpd A): 61; GDI (NCI-H520 [2]; Cmpd B 10000 nM, combo: + 1000 nM Cmpd A): 17; GDI (NCI-H520 [2]; Cmpd B 20000 nM, combo: + 1000 nM Cmpd A): −57
